Assay results published in the supplement of paper PMC11061612.

Tests used:
[1] = test system: 639-V (Bladder Carcinoma); assay: combination Emax (second highest fraction inhibited in the dose matrix, 72 h); higher = more inhibition; extreme values may be limits of the assay
Procedure, shortened: (§1)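 After 24 hours at 37°C and 5% CO2 in 1536-well plates, cells in DMEM/F12 or RPMI plus 10% FBS received two-drug dose matrices for 72 hours. Viability came from CellTiter-Glo 2.0 luminescence and was scaled as inhibition, anchored at 0 by vehicle wells and at 1 by blank wells. Combination Emax is taken as the second-highest inhibition in the matrix, and Bliss excess as the observed combination effect less EA + EB − EA·EB, with EA and EB the single-agent effects.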

NCI-H2461 (Mesothelioma) = assay: as above
Procedure, shortened: as §1

[2] = test system: SK-OV-3 (Ovarian Carcinoma); assay: as above
Procedure, shortened: as §1

[3] = test system: EN (Endometrial Carcinoma); assay: as above
Procedure, shortened: as §1

[4] = test system: SW1116 (Colorectal Carcinoma); assay: as above
Procedure, shortened: as §1

[5] = test system: CAPAN-1 (Pancreatic Carcinoma); assay: as above
Procedure, shortened: as §1

NB14 (Neuroblastoma) = assay: as above
Procedure, shortened: as §1

[6] = test system: PCI-30 (Head and Neck Carcinoma); assay: as above
Procedure, shortened: as §1

[7] = test system: UMC-11 (Other Solid Carcinomas); assay: as above
Procedure, shortened: as §1

[8] = test system: SUP-T1 (T-Lymphoblastic Leukemia); assay: as above
Procedure, shortened: as §1

[9] = test system: KYSE-410 (Esophageal Squamous Cell Carcinoma); assay: as above
Procedure, shortened: as §1

COLO-829 (Melanoma) = assay: as above
Procedure, shortened: as §1

SH-4 (Melanoma) = assay: as above
Procedure, shortened: as §1

[10] = test system: HARA (Squamous Cell Lung Carcinoma); assay: as above
Procedure, shortened: as §1

[11] = test system: HCC-15 (Squamous Cell Lung Carcinoma); assay: as above
Procedure, shortened: as §1

[12] = test system: TE-4 (Esophageal Squamous Cell Carcinoma); assay: as above
Procedure, shortened: as §1

[13] = test system: SW1116 (Colorectal Carcinoma); assay: Bliss excess, mean over the matrix (fraction); higher = more synergy
Procedure, shortened: as §1

[14] = test system: SU-DHL-6 (B-Cell Non-Hodgkin's Lymphoma); assay: as above
Procedure, shortened: as §1

[15] = test system: OVCAR-8 (Ovarian Carcinoma); assay: as above
Procedure, shortened: as §1

[16] = test system: HARA (Squamous Cell Lung Carcinoma); assay: as above
Procedure, shortened: as §1
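Throughout, for Bliss excess, mean over the matrix: after 72 h of two-drug dosing.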

Structure (SMILES)	combination Emax [1]	combination Emax (NCI-H2461 (Mesothelioma))	combination Emax [2]	combination Emax [3]	combination Emax [4]	combination Emax [5]	combination Emax (NB14 (Neuroblastoma))	combination Emax [6]	combination Emax [7]	combination Emax [8]	combination Emax [9]	combination Emax (COLO-829 (Melanoma))	combination Emax (SH-4 (Melanoma))	combination Emax [10]	combination Emax [11]	combination Emax [12]	Bliss excess [13]	Bliss excess [14]	Bliss excess [15]	Bliss excess [16]
CC1(C)CCC(CN2CCN(c3ccc(C(=O)NS(=O)(=O)c4ccc(NCC5CCOCC5)c([N+](=O)[O-])c4)c(Oc4cnc5[nH]ccc5c4)c3)CC2)=C(c2ccc(Cl)cc2)C1 [Venetoclax] + C1CN(CCC1(C(=O)N[C@@H](CCO)C2=CC=C(C=C2)Cl)N)C3=NC=NC4=C3C=CN4 [Capivasertib] (first compound max 1 µM, 7x7, partner max 3 µM)	0.283	0.528	0.353	0.554	0.0942	0.184	0.95	0.252	0.196	0.757	0.203	0.16	0.208	0.645	0.232	0.564	-0.0491	0.0537	-0.0504	-0.009
CC1(C)CCC(CN2CCN(c3ccc(C(=O)NS(=O)(=O)c4ccc(NCC5CCOCC5)c([N+](=O)[O-])c4)c(Oc4cnc5[nH]ccc5c4)c3)CC2)=C(c2ccc(Cl)cc2)C1 [Venetoclax] + C=CCn1c(=O)c2cnc(Nc3ccc(N4CCN(C)CC4)cc3)nc2n1-c1cccc(C(C)(C)O)n1 [AZD1775] (first compound max 1 µM, partner max 1 µM)	0.428	0.731	0.74	0.653	0.23	0.45	1	0.736	0.487	0.812	0.422	0.235	0.573	0.899	0.469	0.555	-0.0214	0.0009	-0.0326	0.0494
CC1(C)CCC(CN2CCN(c3ccc(C(=O)NS(=O)(=O)c4ccc(NCC5CCOCC5)c([N+](=O)[O-])c4)c(Oc4cnc5[nH]ccc5c4)c3)CC2)=C(c2ccc(Cl)cc2)C1 [Venetoclax] + CCN(CCO)CCCOc1ccc2c(Nc3cc(CC(=O)Nc4cccc(F)c4)[nH]n3)ncnc2c1 [AZD2811] (first compound max 1 µM, 7x7, partner max 1 µM)	0.248	0.422	0.205	0.399	0.202	0.206	1	0.229	0.91	0.614	0.191	0.127	0.241	0.714	0.781	0.191	-0.046	0.0684	0.0431	0.0345
CC1(C)CCC(CN2CCN(c3ccc(C(=O)NS(=O)(=O)c4ccc(NCC5CCOCC5)c([N+](=O)[O-])c4)c(Oc4cnc5[nH]ccc5c4)c3)CC2)=C(c2ccc(Cl)cc2)C1 [Venetoclax] + CN(C)CCCOc1ccc(-c2ccc3ncc4c(c3c2)n(C2CCOCC2)c(=O)n4C)cn1 [AZD0156] (first compound max 1 µM, 7x7, partner max 1 µM)	0.202	0.525	0.239	0.426	0.103	0.184	0.98	0.149	0.269	0.616	0.172	0.21	0.279	0.651	0.215	0.179	-0.0409	0.036	-0.0089	-0.0121
CC1(C)CCC(CN2CCN(c3ccc(C(=O)NS(=O)(=O)c4ccc(NCC5CCOCC5)c([N+](=O)[O-])c4)c(Oc4cnc5[nH]ccc5c4)c3)CC2)=C(c2ccc(Cl)cc2)C1 [Venetoclax] + COc1cc(Nc2ncc3c(n2)-c2ccc(Cl)cc2C(c2c(F)cccc2OC)=NC3)ccc1C(=O)O [Alisertib] (first compound max 1 µM, 7x7, partner max 10 µM)	0.752	0.459	0.315	0.463	0.341	0.28	0.993	0.218	0.798	0.611	0.361	0.252	0.146	0.787	0.86	0.194	0.0127	0.121	0.0079	0.018
CC1(C)CCC(CN2CCN(c3ccc(C(=O)NS(=O)(=O)c4ccc(NCC5CCOCC5)c([N+](=O)[O-])c4)c(Oc4cnc5[nH]ccc5c4)c3)CC2)=C(c2ccc(Cl)cc2)C1 [Venetoclax] + C[C@@H]1COCCN1C2=NC(=NC(=C2)C3(CC3)[S@](=N)(=O)C)C4=C5C=CNC5=NC=C4 [AZD6738] (first compound max 1 µM, 7x7, partner max 10 µM)	0.479	0.725	0.573	0.64	0.329	0.416	1	0.69	0.619	0.821	0.372	0.349	0.304	0.804	0.191	0.617	-0.0234	0.0561	-0.0444	-0.0787
CC1(C)CCC(CN2CCN(c3ccc(C(=O)NS(=O)(=O)c4ccc(NCC5CCOCC5)c([N+](=O)[O-])c4)c(Oc4cnc5[nH]ccc5c4)c3)CC2)=C(c2ccc(Cl)cc2)C1 [Venetoclax] + C[C@@H](Nc1cc(F)cc(F)c1)c1cc(C(=O)N(C)C)cc2c(=O)cc(N3CCOCC3)oc12 [AZD8186] (first compound max 1 µM, 7x7, partner max 3 µM)	0.321	0.447	0.433	0.422	0.0998	0.178	1	0.19	0.143	0.461	0.172	0.243	0.192	0.607	0.173	0.0248	-0.0358	0.0547	-0.0162	0.0144
CC1(C)CCC(CN2CCN(c3ccc(C(=O)NS(=O)(=O)c4ccc(NCC5CCOCC5)c([N+](=O)[O-])c4)c(Oc4cnc5[nH]ccc5c4)c3)CC2)=C(c2ccc(Cl)cc2)C1 [Venetoclax] + Cc1cc2ncnn2cc1Nc1ncc2c(n1)n(C1CCOCC1)c(=O)n2C [AZD7648] (first compound max 1 µM, 7x7, partner max 10 µM)	0.244	0.528	0.353	0.49	0.151	0.195	0.974	0.224	0.414	0.602	0.23	0.143	0.279	0.572	0.253	0.228	-0.0232	0.049	-0.0014	-0.03
CC1(C)CCC(CN2CCN(c3ccc(C(=O)NS(=O)(=O)c4ccc(NCC5CCOCC5)c([N+](=O)[O-])c4)c(Oc4cnc5[nH]ccc5c4)c3)CC2)=C(c2ccc(Cl)cc2)C1 [Venetoclax] + Cn1cnc2c(F)c(Nc3ccc(Br)cc3Cl)c(C(=O)NOCCO)cc21 [Selumetinib] (first compound max 1 µM, 7x7, partner max 3 µM)	0.27	0.444	0.137	0.373	0.453	0.314	0.974	0.206	0.17	0.426	0.222	0.426	0.872	0.617	0.438	0.114	-0.0736	0.0155	-0.0373	-0.0084
